Earlier results on one compound are cited in patent US20250319037A1, “METHODS OF DELIVERING THERAPEUTIC AGENTS, AND LIPID COMPOSITIONS” (FUJIFILM Corporation, priority 2022, published 2025).

Molecules are shown by their SMILES.

The conditions of the data set: Non-patent documents 11 and 12.

As to `CC(C)CCC[C@@H](C)[C@H]1CC[C@H]2[C@@H]3CC=C4C[C@@H](OC(=O)NCCN(C)C)CC[C@]4(C)[C@H]3CC[C@]12C` [DC-cholesterol], the “pKa of the tertiary amine group” value was 7.8.
